In assay [1] the target is Tyrosine-protein kinase BTK (Homo sapiens) (UniProt Q06187). The experiment in a line: Receptor occupancy at BTK in human Ramos B cells at 1 uM preincubated for 1 hr followed by compound washout measured after 20 hrs by PP-BODIPY probe based fluorescence assay. The assay is classed as cell-based.

The structures appear in SMILES notation.

Tyrosine-protein kinase BTK (Homo sapiens), sequence (Q06187 whole entry): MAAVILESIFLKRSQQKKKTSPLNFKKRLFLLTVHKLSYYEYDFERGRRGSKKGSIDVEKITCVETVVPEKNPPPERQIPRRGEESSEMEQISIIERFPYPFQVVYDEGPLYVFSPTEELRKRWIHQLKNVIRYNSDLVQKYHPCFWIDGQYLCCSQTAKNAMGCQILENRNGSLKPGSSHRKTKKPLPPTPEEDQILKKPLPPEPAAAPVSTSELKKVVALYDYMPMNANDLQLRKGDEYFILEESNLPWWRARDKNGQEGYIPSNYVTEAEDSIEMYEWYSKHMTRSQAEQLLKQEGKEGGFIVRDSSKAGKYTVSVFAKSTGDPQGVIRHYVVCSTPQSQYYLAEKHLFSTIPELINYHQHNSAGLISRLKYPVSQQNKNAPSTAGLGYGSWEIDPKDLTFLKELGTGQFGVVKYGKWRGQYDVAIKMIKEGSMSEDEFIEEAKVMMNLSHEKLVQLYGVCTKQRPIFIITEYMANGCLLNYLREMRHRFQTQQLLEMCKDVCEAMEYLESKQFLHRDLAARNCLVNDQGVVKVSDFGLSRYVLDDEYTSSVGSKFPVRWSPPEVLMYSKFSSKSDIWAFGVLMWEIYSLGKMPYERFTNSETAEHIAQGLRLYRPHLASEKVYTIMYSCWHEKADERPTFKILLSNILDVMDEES

`C/C=C(\C#N)C(=O)N1CCC[C@@H](n2nc(-c3ccc(Oc4ccccc4)cc3)c3c(N)ncnc32)C1` gave an Occ in assay [1] of 5%. In assay [1], `CC(C)(C)/C=C(\C#N)C(=O)N1CCC[C@@H](n2nc(-c3ccc(Oc4ccccc4)cc3)c3c(N)ncnc32)C1` came in with an Occ of 50%.

`CC(C)(C)NC(=O)[C@H]1CC[C@H]2[C@@H]3CC[C@H]4NC(=O)C=C[C@]4(C)[C@H]3CC[C@]12C` came in with a T1/2 in the assay with Francisella tularensis of 4.7 to 7.1 h.

These data come from ChEMBL document CHEMBL4190228, “Covalent inhibitors design and discovery” (Eur J Med Chem, 2017).
